This is an account of results in ChEMBL document CHEMBL3714767, “Imidazothiadiazole and imidazopyridazine derivatives as protease activated receptor 4 (PAR4) inhibitors for treating platelet aggregation” (2013).

Activity calls are given as the source filed them. No cut-off for these calls is given here. Where a SMILES comes first, the peptide text is derived from it. [ ]: non-standard residue; d: D form. The star is where a group is joined. Phe(4-guanidino) = N=C(N)Nc1ccc(C[C@H](N)C(=O)O)cc1; Phe(4-F) = N[C@@H](Cc1ccc(F)cc1)C(=O)O; X1 = O=C(/C=C/c1ccccc1)*

The target in experiment [1] is T1, Proteinase-activated receptor 4 (Homo sapiens) (UniProt Q96RI0).
T1 sequence (whole entry): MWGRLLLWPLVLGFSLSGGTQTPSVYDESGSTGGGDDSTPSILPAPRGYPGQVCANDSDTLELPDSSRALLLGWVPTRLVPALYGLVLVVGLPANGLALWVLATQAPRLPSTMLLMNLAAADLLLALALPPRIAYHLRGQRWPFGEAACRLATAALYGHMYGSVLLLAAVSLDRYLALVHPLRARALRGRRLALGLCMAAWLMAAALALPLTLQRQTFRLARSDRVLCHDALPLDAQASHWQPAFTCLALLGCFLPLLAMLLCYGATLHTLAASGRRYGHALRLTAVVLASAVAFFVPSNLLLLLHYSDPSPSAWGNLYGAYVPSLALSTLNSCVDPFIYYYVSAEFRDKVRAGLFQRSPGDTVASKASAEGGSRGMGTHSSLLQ
Description: Antagonist activity against PAR4 in washed human platelets assessed as inhibition of alpha-thrombin-induced platelet aggregation at 30 to 300 nM pre-incubated for 20 mins before alpha-thrombin addition and measured over 100 to 500 secs by optical aggregometry. Format: functional.

For experiment [2], the target named is T2, Proteinase-activated receptor 1 (Homo sapiens) (UniProt P25116).
T2 sequence (whole entry): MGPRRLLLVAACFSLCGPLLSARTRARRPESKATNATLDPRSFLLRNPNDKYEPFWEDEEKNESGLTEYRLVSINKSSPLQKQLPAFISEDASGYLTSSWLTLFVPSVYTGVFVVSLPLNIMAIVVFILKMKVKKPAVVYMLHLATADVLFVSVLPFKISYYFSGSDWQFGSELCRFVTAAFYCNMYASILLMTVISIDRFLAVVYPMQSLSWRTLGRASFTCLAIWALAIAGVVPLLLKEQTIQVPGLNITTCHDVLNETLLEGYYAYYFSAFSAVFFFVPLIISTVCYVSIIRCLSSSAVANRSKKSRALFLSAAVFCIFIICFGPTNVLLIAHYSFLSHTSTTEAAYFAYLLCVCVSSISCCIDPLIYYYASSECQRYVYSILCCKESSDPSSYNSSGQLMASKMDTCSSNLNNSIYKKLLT
Description: Antagonist activity against PAR1 in washed human platelets assessed as inhibition of alpha-thrombin-induced platelet aggregation at 30 to 300 nM pre-incubated for 20 mins before alpha-thrombin addition and measured over 100 to 500 secs by optical aggregometry. The experiment is classed as functional.

For the compound `COc1cc(OCc2cccc(-c3ccc(C#N)nc3)c2)c2cc(-c3cn4nc(OC)sc4n3)oc2c1`, the inhibition entry in experiment [1] is “Active”.

Take `CC(C)C[C@H](NC(=O)[C@H](Cc1ccc(NC(=N)N)cc1)NC(=O)[C@H](Cc1ccc(F)cc1)NC(=O)/C=C/c1ccccc1)C(=O)N[C@@H](CCCNC(=N)N)C(=O)N[C@@H](CCCNC(=N)N)C(=O)O` (X1-[Phe(4-F)][Phe(4-guanidino)]LRR-OH): the inhibition result in experiment [2] is “Active”.
